# Literature values as cited in publication PMC10093509, “Diagnosis and Treatment of Peripheral and Cranial Nerve Tumors with Expert Recommendations: An EUropean Network for RAre CANcers (EURACAN) Initiative” (Cancers, 2023).
# Where two headings read alike, the source gives them in different places. *1 amine or outer side, *2 acyl side, *3 side chain or, on linkers, in order; H or OH if unused. Where a SMILES comes first, the peptide text is derived from it. Bridges are numbered along the chain shown (N, C = ends). Roman numbers before positions name the chains, in order. [ ]: non-standard residue; d: D form. Actinocin(9to1) = Cc1c2oc3c(C)ccc(C(=O)[*:1])c3nc-2c(C(=O)[*:2])c(N)c1=O; NMeV = CN[C@H](C(=O)O)C(C)C; Sar = CNCC(=O)O
# How the values were obtained:
# [1] = tested on: progressive or symptomatic inoperable PNs
# [2] = tested on: progressive and/or symptomatic PNs; set-up: method as in PMID 33507822
# [3] = tested on: MPNST; set-up: method as in PMID 27502708
# [4] = tested on: NF1 PNs, progressive or causing significant neurological symptoms
# [5] = tested on: MPNST; set-up: method as in PMID 20838322; conditions: alone or in combination
# [6] = tested on: MPNST; set-up: method as in PMID 26710211; conditions: 14 MPNST patients
# [7] = tested on: MPNST; set-up: method as in PMID 24618336
# [8] = tested on: MPNST harboring a novel SNRNP70-NTRK3 fusion gene
# [9] = tested on: MPNST; set-up: method as in doi:10.1200/jco.2006.24.18_suppl.9518
# [10] = tested on: plexiform neurofibromas (PN) of neurofibromatosis; set-up: method as in PMID 23099009, PMID 24500418, PMID 24753394, PMID 24851266, PMID 25314964; conditions: initial studies
# [11] = tested on: MPNST; set-up: method as in PMID 19451433; conditions: seven MPNST patients
# [12] = tested on: advanced MPNST; set-up: method as in PMID 32638374
# [13] = tested on: unresectable or metastatic MPNST; set-up: method as in PMID 33512749; conditions: one patient with NF1-associated MPNST; selinexor alone
# [14] = tested on: NF1 inoperable PNs; set-up: method as in PMID 28029918
# [15] = tested on: NF1 inoperable PNs
# [16] = tested on: spinal PNs; set-up: method as in PMID 35467749, PMID 32939452
# [17] = tested on: asymptomatic PNs; set-up: method as in PMID 35467749; conditions: median 41 cycles (2–67)
# [18] = tested on: unresectable, symptomatic, and progressive PNs; conditions: adults
# [19] = tested on: MPNST; set-up: method as in PMID 19451436; conditions: 15 patients
# [20] = tested on: NF-1-associated PN; set-up: method as in doi:10.1200/JCO.2018.36.15_suppl.10504
# [21] = tested on: NF-1-associated PNs or low-grade gliomas; set-up: method as in PMID 36015104; conditions: meta-analysis
# [22] = tested on: progressive vestibular schwannomas (VS) associated with NF2; set-up: method as in PMID 26976425; conditions: 7.5 mg/kg every 3 weeks
# [23] = tested on: progressive VS associated with NF2; set-up: method as in PMID 22805104
# [24] = tested on: NF1-associated MPNST; set-up: method as in PMID 35100687; conditions: one patient
# [25] = tested on: sporadic metastatic MPNST; set-up: method as in PMID 31383651; conditions: one patient; following four cycles
molecule,measurement,setting,value
COc1cc2nccc(Oc3ccc(NC(=O)C4(C(=O)Nc5ccc(F)cc5)CC4)cc3)c2cc1OC [Cabozantinib],patients who experienced grade 3 adverse events,[1],38%
same,quality of life,[1],no significant improvement
same,ORR,[1]; NF-105,42%
same,intensity of pain,"[1]; after four cycles, patients who achieved a PR",early decrease
same,tumor volume reduction,[1]; from 2.8% to −38.0%,15%
O=C(NOC[C@H](O)CO)c1ccc(F)c(F)c1Nc1ccc(I)cc1F [Mirdametinib],median reduction in tumor volume,[2],17.1%
same,most frequent AEs,[2],"acneiform rash, fatigue, and nausea"
same,patient-reported outcomes over treatment,[2],improvement
COc1cc(Nc2ncc3c(n2)-c2ccc(Cl)cc2C(c2c(F)cccc2OC)=NC3)ccc1C(=O)O [alisertib],OS,[3],69 weeks
same,PFS,[3],13 weeks
Cn1cnc2c(F)c(Nc3ccc(Br)cc3F)c(C(=O)NOCCO)cc21 [binimetinib],discontinuation of treatment (patients),[4],2 patients
same,dose reduction required for grade 3 adverse events (patients),[4],13 patients
same,PR,[4]; 14 out of 19 patients,73.7%
N.N.O=C([O-])C1(C(=O)[O-])CCC1.[Pt+2] [carboplatin],results in treatment of MPNST,[5],disappointing results
N.N.[Cl][Pt][Cl] [cisplatin],results in treatment of MPNST,[5],disappointing results
O=P1(N(CCCl)CCCl)NCCCO1 (stereo not shown) [cyclophosphamide],results in treatment of MPNST,[5],disappointing results
"Cc1c2oc3c(C)ccc(C(=O)N[C@@H]4C(=O)N[C@H](C(C)C)C(=O)N5CCC[C@H]5C(=O)N(C)CC(=O)N(C)[C@@H](C(C)C)C(=O)O[C@@H]4C)c3nc-2c(C(=O)N[C@@H]2C(=O)N[C@H](C(C)C)C(=O)N3CCC[C@H]3C(=O)N(C)CC(=O)N(C)[C@@H](C(C)C)C(=O)O[C@@H]2C)c(N)c1=O [dactinomycin] (I: T[dV]P[Sar][NMeV] / II: T[dV]P[Sar][NMeV]; ester I:1-I:C, II:1-II:C; linker I:N-II:N via Actinocin(9to1))",results in treatment of MPNST,[5],disappointing results
Cc1nc(Nc2ncc(C(=O)Nc3c(C)cccc3Cl)s2)cc(N2CCN(CCO)CC2)n1 [dasatinib],ORR,[6],did not show any ORR
COc1cccc2c1C(=O)c1c(O)c3c(c(O)c1C2=O)C[C@@](O)(C(=O)CO)C[C@@H]3O[C@H]1C[C@H](N)[C@H](O)[C@H](C)O1 [doxorubicin],median OS,[7],51 weeks
same,median PFS,[7],16 weeks
CN1CCN(c2ccc(C(=O)Nc3n[nH]c4ccc(Cc5cc(F)cc(F)c5)cc34)c(NC3CCOCC3)c2)CC1 [entrectinib],response,[8]; one heavily pretreated patient,dramatic response
same,duration of response,[8]; one patient,10 months
C#Cc1cccc(Nc2ncnc3cc(OCCOC)c(OCCOC)cc23)c1 [erlotinib],OS,[9],48 weeks
same,PFS,[9],24 weeks
CO[C@H]1C[C@@H]2CC[C@@H](C)[C@@](O)(O2)C(=O)C(=O)N2CCCC[C@H]2C(=O)O[C@H]([C@H](C)C[C@@H]2CC[C@@H](OCCO)[C@H](OC)C2)CC(=O)[C@H](C)/C=C(\C)[C@@H](O)[C@@H](OC)C(=O)[C@H](C)C[C@H](C)/C=C/C=C/C=C/1C [everolimus],benefit in PN,[10],limited benefits
Cc1ccc(NC(=O)c2ccc(CN3CCN(C)CC3)cc2)cc1Nc1nccc(-c2cccnc2)n1 [imatinib],benefit in PN,[10],limited benefits
same,best response,[11],stable disease as the best response in one patient
same,median PFS,[11],1.9 months
c1c[nH]cn1 [imidazole],results in treatment of MPNST,[5],disappointing results
Cc1ccc(Nc2nccc(N(C)c3ccc4c(C)n(C)nc4c3)n2)cc1S(N)(=O)=O [pazopanib],OS,[12],10.6 months
same,PFS,[12],5.4 months
same,clinical benefit rate,[12]; at 12 weeks,50%
Cc1ccc(=O)n(-c2ccccc2)c1 [pirfenidone],benefit in PN,[10],limited benefits
O=C(/C=C\n1cnc(-c2cc(C(F)(F)F)cc(C(F)(F)F)c2)n1)NNc1cnccn1 [selinexor],duration of disease stabilization,[13],13.5 months
Cn1cnc2c(F)c(Nc3ccc(Br)cc3Cl)c(C(=O)NOCCO)cc21 [selumetinib],median reduction in tumor volume,[14]; phase 1,31%
same,stable disease (patients),[14]; phase 1,2
same,objective response rate (ORR),"[14]; phase 1, 3–18 years",71%
same,median time PR maintained,[14]; range 6–42,23 cycles
same,clinically meaningful improvement in child-reported interference of pain in daily functioning,[15]; SPRINT,38%
same,clinically meaningful improvement in overall health-related QoL,[15]; SPRINT,48%
same,median reduction in tumor volume,[15]; SPRINT,27%
same,ORR,"[15]; SPRINT, 50 patients",68%
same,median progression-free survival (PFS),[15]; at the time of interim-analysis,not reached
same,toxicity,"[15]; children, creatine kinase increase, rash, paronychia, gastrointestinal toxicity",mostly mild and reversible
same,clinical benefit and radiological response with reduction of spinal canal distortion and/or spinal cord deformity (patients),[16],18/24
same,patients achieving tumor shrinkage,[17],72%
same,increased liver enzymes (patients),[18],five
same,pain intensity,[18],decreased pain intensity
same,pancreatic enzyme elevation (patients),[18],one
same,rash (patients),[18],one
same,ORR,[18]; phase 2,69%
same,tumor volume shrinkage as best response,[18]; phase 2,22%
CO[C@H]1C[C@@H]2CC[C@@H](C)[C@@](O)(O2)C(=O)C(=O)N2CCCC[C@H]2C(=O)O[C@H]([C@H](C)C[C@@H]2CC[C@@H](O)[C@H](OC)C2)CC(=O)[C@H](C)/C=C(\C)[C@@H](O)[C@@H](OC)C(=O)[C@H](C)C[C@H](C)/C=C/C=C/C=C/1C [sirolimus],benefit in PN,[10],limited benefits
CNC(=O)c1cc(Oc2ccc(NC(=O)Nc3ccc(Cl)c(C(F)(F)F)c3)cc2)ccn1 [sorafenib],radiological responses,[19],absence of radiological responses
Cn1cncc1[C@@](N)(c1ccc(Cl)cc1)c1ccc2c(c1)c(-c1cccc(Cl)c1)cc(=O)n2C [tipifarnib],benefit in PN,[10],limited benefits
CC(=O)Nc1cccc(-n2c(=O)n(C3CC3)c(=O)c3c(Nc4ccc(I)cc4F)n(C)c(=O)c(C)c32)c1 [trametinib],duration of radiological response,[20],more than 12 months
same,PR,"[20]; 12 out of 26 patients, interim analysis",46%
same,side effects,[20]; such as paronychia and rash,manageable
same,ORR,[21],45.3%
same,disease control rate,[21],99.8%
CC[C@]1(O)C[C@H]2CN(CCc3c([nH]c4ccccc34)[C@@](C(=O)OC)(c3cc4c(cc3OC)N(C=O)[C@H]3[C@@](O)(C(=O)OC)[C@H](OC(C)=O)[C@]5(CC)C=CCN6CC[C@]43[C@@H]65)C2)C1 [vincristine],results in treatment of MPNST,[5],disappointing results
bevacizumab,partial radiographic response with volume reduction of 20% or more (patients),[22]; 6/14 patients,43%
same,hearing improvement (patients),[22]; NF2 patients with progressive VS,36%
same,hearing and radiographic outcome,[23],remarkable improvement of hearing and objective radiographic responses
interferon alfa-2b,benefit in PN,[10],limited benefits
nivolumab,response,[24],prolonged PR
pembrolizumab,response,[25],complete response
